Converted amounts (≈) assume the structure as drawn. Like-named read-outs stand apart in the source and are kept apart here.
How the values were obtained:
5-HT2A receptor = 5-HT2A receptor (Homo sapiens, UniProt P28223); assay: Calcium ion mobility in cells stably expressing 5-HT2A receptors (Flp-In-CHO-5HT2A, FLIPR); assay type: cell-based; parameters: expressed in transfected cells; conditions: Flp-In-CHO-5HT2A stable pool, 5HT stimulation
Experimental: Determination of the effect of the compounds of the present invention on calcium ion mobility in cells stably expressing 5-HT2A receptors
To determine the inhibitory effect of the compounds on 5-HT2A receptor.
• 1) Preparation of the buffer: 1 x HBSS, 20 mM HEPES, 2.5 mM probenecid (probenecid was 400 mM stock in 1 M NaOH), 0.1% BSA. Probenecid and BSA were added fresh on the day of the experiment. Experimental buffers include dye buffer and compound dilution buffer. • 2) Cell culture medium: Ham's F-12K + 10% fetal bovine serum + 600 µg/ml hygromycin B + 1* penicillin-streptomycin. Seeding medium: Ham's F-12K + 10% dialysis serum; Assay buffer: 1 x HBSS + 20 mM HEPES; Cell line: Flp-In-CHO-5HT2A stable pool. • 3) The cells were cultured in the complete medium at 37°C, 5% CO2 to 70%-90% confluency. The cells were digested with TrypLE, seeded to the 384-well assay plate at a density of 1 × 10^4 cells/well, and incubated for 16 to 24 hours (at least overnight). • 4) 20X Component A was thawed to room temperature, diluted to 2X working concentration (containing 5mM Probenecid) with the assay buffer, and placed at room temperature for later use. • 5) The cell culture plate was taken out and left to stand at room temperature for 10 min. […] 10 µl of diluted 5HT was add to each experimental well using FLIPR Tetra, and the values were read.
The calcium signal values were determined by FLIPR. The calculated output for each sampling time point in the experiment was the ratio of the 340/510 nm wavelength signals to 380/510 nm wavelength signals. The maximum minus minimum calculation was derived from the ratio signal curve. The percent inhibition rate and ten-point concentration data were fitted to the parametric nonlinear logistic equation by using GraphPad prism to calculate the IC50 values of the compound.

D3 receptor = biological target: T1, D3 receptor (Homo sapiens, UniProt P35462); assay: cAMP content in cells stably expressing D3 receptors (CHO-D3, forskolin, HTRF); assay type: cell-based
T1 construct: expressed in transfected cells
T1 sequence (P35462 whole entry): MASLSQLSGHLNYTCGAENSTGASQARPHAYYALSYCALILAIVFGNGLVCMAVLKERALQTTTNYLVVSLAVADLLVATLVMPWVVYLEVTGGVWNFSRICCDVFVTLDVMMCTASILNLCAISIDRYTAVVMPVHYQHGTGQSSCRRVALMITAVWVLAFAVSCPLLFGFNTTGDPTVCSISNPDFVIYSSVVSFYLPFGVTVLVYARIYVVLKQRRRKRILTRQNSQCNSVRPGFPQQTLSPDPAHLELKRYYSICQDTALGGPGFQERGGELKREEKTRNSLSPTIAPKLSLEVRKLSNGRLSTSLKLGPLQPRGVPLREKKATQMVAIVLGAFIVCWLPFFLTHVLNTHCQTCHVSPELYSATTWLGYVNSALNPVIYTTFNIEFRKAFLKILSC
Experimental: Determination of the effect of the compounds of the present invention on cAMP content in cells stably expressing D3 receptors
To determine the activation effect of the compounds on D3 receptor.
• 1. Preparation of the buffer: 1* HBSS + 20mM HEPES + 0.1% BSA + 500 µM IBMX. Complete medium: Ham's F12K + 10% fetal bovine serum +1* penicillin-streptomycin + 400 µg/mL G418. • 2. CHO-D3 cells were cultured in the complete medium at 37°C, 5% CO2. After TrypLE digestion, the cells were resuspended in the experimental buffer, and seeded into a 384-well cell culture plate at a seeding density of 8000 cells per well. • 3. The experimental buffer (1*HBSS, 0.1% BSA, 20 mM HEPES and 500 µM IBMX) was prepared. The compound was diluted with the buffer. 2.5 µL of the compound solution was added to each well, and the plate was incubated at 37°C for 10 minutes. The forskolin was diluted to 8 µM (8*) with the experimental buffer. 2.5 µL of the diluted 8* forskolin was added, and the plate was incubated at 37°C for 30 minutes. cAMP-d2 and Anti-cAMP-Eu^3+ were thawed, and diluted by 20-fold with the lysis buffer. 10 µL of cAMP-d2 was added to the experimental well, followed by the addition of 10 µL of Anti-cAMP-Eu^3+. The reaction plate was centrifuged at 200 g for 30 s at room temperature, and left to stand at 25°C for 1 h. Data was collected using Envision.

[1] = Pharmacokinetic assay in Balb/c mice (plasma and brain tissue); assay type: in vivo; conditions: male, mouse, po, p.o. 5 mg/kg; for AUC(0-t): read-out: Area under curve AUC0-t; for Tmax: read-out: Peak time tmax; for Cmax: read-out: Plasma concentration Cmax
Experimental: Balb/c mice were used as test animals. The pharmacokinetic behavior in mouse body (plasma and brain tissue) of the compounds of Examples of the present invention was studied at an oral administration dose of 5 mg/kg.
Compounds of the Examples of the present invention, prepared by the applicant.
Male Balb/c mice (12 mice per group), purchased from Shanghai Jiesijie Laboratory Animal Co., LTD, with Certificate No.: SCXK (Shanghai) 2013-0006 N0.311620400001794.
The test compound was dissolved in 0.5% CMC-Na (1% Tween80) by sonication to formulate a clear solution or homogeneous suspension.
After an overnight fast, male Balb/c mice (12 mice per group) were administered p.o. with the test compound at an administration dose of 5 mg/kg and an administration volume of 10 mL/kg.
0.2 mL of blood was taken from the heart of the mouse before administration and at 1, 2, 4, 8 and 24 hours after administration, and the mice were sacrificed with CO2. The samples were stored in EDTA-K2 tubes, and centrifuged for 6 minutes at 4°C, 6000 rpm to separate the plasma. The plasma samples were stored at -80°C. Whole brain tissue was taken out, weighed, placed in a 2 mL centrifuge tube, and stored at -80°C.
• 1) 160 µL of acetonitrile was added to 40 µL of the plasma sample for precipitation, and then the mixture was centrifuged for 5 to 20 minutes at 3500 × g. • 2) 90 µL of acetonitrile containing internal standard (100 ng/mL) was added to 30 µL of the plasma and brain homogenate sample for precipitation, and then the mixture was centrifuged for 8 minutes at 13000 rpm. • 3) 70 µL of water was added to 70 µL of the treated supernatant and mixed by vortex for 10 minutes. 20 µL of the supernatant was taken to analyze the concentration of the test compound by LC/MS/MS. LC/MS/MS analytical instrument: AB Sciex API 4000 Qtrap.
• Liquid chromatography condition: Shimadzu LC-20AD pump • Chromatographic column: Agilent ZORBAX XDB-C18 (50×2.1 mm, 3.5 µm); Mobile phase: Eluent A was 0.1% formic acid in water, and Eluent B was acetonitrile • Flow rate: 0.4 mL/min • Elution time: 0-4.0 minutes, the eluent is as follows:
The main parameters of pharmacokinetics were calculated by WinNonlin 6.1. Table 17: Experimental results of pharmacokinetic assay in mice

[2] = Solubility of hydrochloride and free base in different media (37°C, 24 hours, HPLC); assay type: physicochemical; conditions: thermodynamic from solid
Experimental: The glass bottle was shaken overnight on an electrothermal constant temperature shaking tank, and the temperature was set to 37°C. After 24 hours, the sample solution was filtered with a 0.45 µm mixed water fiber filter membrane, and the subsequent filtrate was taken to test its content by HPLC. HPLC detection methods are described in "Stability Study Conditions". Table 24 Solubility of hydrochloride and free base in different pH buffers

Chain of 5-HT2A receptor (P28223 whole entry): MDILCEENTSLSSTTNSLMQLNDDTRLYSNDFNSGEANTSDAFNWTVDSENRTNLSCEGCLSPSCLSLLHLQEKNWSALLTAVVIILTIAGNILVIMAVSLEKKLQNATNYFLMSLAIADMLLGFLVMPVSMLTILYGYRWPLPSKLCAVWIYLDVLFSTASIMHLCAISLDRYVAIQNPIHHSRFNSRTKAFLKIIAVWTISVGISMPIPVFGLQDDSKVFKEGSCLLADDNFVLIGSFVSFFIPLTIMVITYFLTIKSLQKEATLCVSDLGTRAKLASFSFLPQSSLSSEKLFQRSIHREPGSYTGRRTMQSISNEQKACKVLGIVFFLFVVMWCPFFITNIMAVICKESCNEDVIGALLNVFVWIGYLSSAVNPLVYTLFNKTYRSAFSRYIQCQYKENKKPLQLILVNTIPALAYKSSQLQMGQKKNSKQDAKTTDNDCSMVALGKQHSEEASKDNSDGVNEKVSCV

| IC50 (5-HT2A receptor) | EC50 (D3 receptor) | SMILES | also measured |
| --- | --- | --- | --- |
| 7.37 nM | 1 nM | O=C(NC1CC(CCN2CCN(c3cccc(Cl)c3Cl)CC2)C1)c1cccc2ncccc12 (stereo not drawn) [Example 19, N-(3-(2-(4-(2,3-Dichlorophenyl)piperazin-1-yl)ethyl)cyclobutyl)quinoline-5-carbox amide] | – |
| 8.06 nM | 1.7 nM | O=C(NC1CC(CCN2CCN(c3cccc(Cl)c3Cl)CC2)C1)c1ccno1 (stereo not drawn) [Example 15, N-(3-(2-(4-(2,3-Dichlorophenyl)piperazin-1-yl)ethyl)cyclobutyl)isoxazole-5-carboxamide] | – |
| 13.1 nM | 2.9 nM | O=C(NC1CC(CCN2CCN(c3cccc(Cl)c3Cl)CC2)C1)C1(O)CC1 (stereo not drawn) [Example 6, N-(3-(2-(4-(2,3-Dichlorophenyl)piperazin-1-yl)ethyl)cyclobutyl)-1-hydroxycyclopro pane-1-carboxamide] | AUC(0-t) ([1]; Brain): 1970 ng·h/mL; Tmax ([1]; Brain): 1 h; Cmax ([1]; Brain): 464 ng/mL; AUC(0-t) ([1]; Plasma): 2330 ng·h/mL; AUC(0-inf) ([1]; Plasma, read-out: Area under curve AUC0-∞): 2460 ng·h/mL; MRT ([1]; Plasma, read-out: Average residence time MRT): 2.8 h; half-life ([1]; Plasma, read-out: Half life t1/2 (converted)): 1.9 h; Tmax ([1]; Plasma): 0.5 h; Cmax ([1]; Plasma): 865 ng/mL |
| – | – | O=C(N[C@H]1C[C@H](CCN2CCN(c3cccc(Cl)c3Cl)CC2)C1)c1ncco1 [crystal form B of free base] | solubility at 24 h ([2]; aqueous buffer, Buffer pH 3): > 1000 µg/mL; solubility at 24 h ([2]; aqueous buffer, Buffer pH 4): > 1000 µg/mL; solubility at 24 h ([2]; aqueous buffer, Buffer pH 5): > 1000 µg/mL; solubility at 24 h ([2]; aqueous buffer, Buffer pH 6): 388 µg/mL (≈ 917 µM); solubility at 24 h ([2]; aqueous buffer, Buffer pH 7): 44 µg/mL (≈ 104 µM); solubility at 24 h ([2]; aqueous buffer, Buffer pH 8): 2 µg/mL (≈ 4.72 µM); solubility at 24 h ([2]; fassgf or other biorelevant, FaSSCoF): > 1000 µg/mL; solubility at 24 h ([2]; fassgf or other biorelevant, FaSSGF): 154 µg/mL (≈ 364 µM); solubility at 24 h ([2]; fassgf or other biorelevant, FeSSCoF): > 1000 µg/mL; solubility at 24 h ([2]; simulated gastric fluid, Buffer pH 1): > 1000 µg/mL; solubility at 24 h ([2]; simulated gastric fluid, Buffer pH 2): > 1000 µg/mL; solubility at 24 h ([2]; FaSSIF): > 1000 µg/mL; solubility at 24 h ([2]; FeSSIF): > 1000 µg/mL; solubility at 24 h ([2]; water, H2O): 125 µg/mL (≈ 295 µM) |
| 6.4 nM | 3.9 nM | Cc1nc(C(=O)NC2CC(CCN3CCN(c4cccc(Cl)c4Cl)CC3)C2)co1 (stereo not drawn) [Example 18, N-(3-(2-(4-(2,3-Dichlorophenyl)piperazin-1-yl)ethyl)cyclobutyl)-2-methyloxazole-4-carboxamide] | – |
| 16.7 nM | 2.2 nM | COCC(=O)NC1CC(CCN2CCN(c3cccc(Cl)c3Cl)CC2)C1 (stereo not drawn) [Example 2, N-(3-(2-(4-(2,3-Dichlorophenyl)piperazin-1-yl)ethyl)cyclobutyl)-2-methoxyacetamide] | – |
| 5.78 nM | 0.7 nM | Cc1ncc(C(=O)NC2CC(CCN3CCN(c4cccc(Cl)c4Cl)CC3)C2)o1 (stereo not drawn) [Example 16, N-(3-(2-(4-(2,3-Dichlorophenyl)piperazin-1-yl)ethyl)cyclobutyl)-2-methyloxazole-5-carboxamide] | – |
| 48 nM | 1.2 nM | O=C(NC1CC(CCN2CCN(c3cccc(Cl)c3Cl)CC2)C1)c1cccnc1 (stereo not drawn) [Example 3, N-(3-(2-(4-(2,3-Dichlorophenyl)piperazin-1-yl)ethyl)cyclobutyl)nicotinamide] | – |
| 8.9 nM | 1.2 nM | Cc1cc(CC(=O)NC2CC(CCN3CCN(c4cccc(Cl)c4Cl)CC3)C2)on1 (stereo not drawn) [Example 10, N-(3-(2-(4-(2,3-Dichlorophenyl)piperazin-1-yl)ethyl)cyclobutyl)-2-(3-methylisoxazol-5-yl)acetamide] | – |
| 8.92 nM | 3.1 nM | O=C(NC1CC(CCN2CCN(c3cccc(Cl)c3Cl)CC2)C1)c1ccon1 (stereo not drawn) [Example 17, N-(3-(2-(4-(2,3-Dichlorophenyl)piperazin-1-yl)ethyl)cyclobutyl)isoxazole-3-carboxamide] | – |
| 13.4 nM | 1.2 nM | Cc1cc(C(=O)NC2CC(CCN3CCN(c4cccc(Cl)c4Cl)CC3)C2)on1 (stereo not drawn) [Example 14, N-(3-(2-(4-(2,3-Dichlorophenyl)piperazin-1-yl)ethyl)cyclobutyl)-3-methylisoxazole-5-carboxamide] | – |
| 10.9 nM | 3.4 nM | Cc1cnoc1C(=O)NC1CC(CCN2CCN(c3cccc(Cl)c3Cl)CC2)C1 (stereo not drawn) [Example 13, N-(3-(2-(4-(2,3-Dichlorophenyl)piperazin-1-yl)ethyl)cyclobutyl)-4-methylisoxazole-5-carboxamide] | – |
| 22.1 nM | 2.4 nM | COC1CN(C(=O)NC2CC(CCN3CCN(c4cccc(Cl)c4Cl)CC3)C2)C1 (stereo not drawn) [Example 5, N-(3-(2-(4-(2,3-Dichlorophenyl)piperazin-1-yl)ethyl)cyclobutyl)-3-methoxyazetidine-1-carboxamide] | – |
| 33.5 nM | 3.3 nM | N#CC1(C(=O)NC2CC(CCN3CCN(c4cccc(Cl)c4Cl)CC3)C2)CC1 (stereo not drawn) [Example 21, 1-Cyano-N-(3-(2-(4-(2,3-dichlorophenyl)piperazin-1-yl)ethyl)cyclobutyl)cyclopropane-1-carboxamide] | – |
| 8.08 nM | 3.5 nM | Cc1ccc(C(=O)NC2CC(CCN3CCN(c4cccc(Cl)c4Cl)CC3)C2)o1 (stereo not drawn) [Example 1, N-(3-(2-(4-(2,3-Dichlorophenyl)piperazin-1-yl)ethyl)cyclobutyl)-5-methylfuran-2-c arboxamide] | – |

Reference: patent EP4332093A1, “SALT CONTAINING PIPERAZINE POLYCYCLIC DERIVATIVE, CRYSTAL FORM THEREOF, PREPARATION METHOD THEREFOR, AND USE THEREOF” (Shanghai Hansoh Biomedical Co., Ltd., priority 2021, dated 2022)
